± gives the expanded uncertainty stated by the source.
Details: 323.37 K, Liquid, Vibrating tube method

FC(F)=C(F)C(F)(F)F [hexafluoropropene]
Details	mass density [kg/m3]
1440.4 kPa	1174.76 ± 1.2
1445.7 kPa	1175 ± 1.2
1451.5 kPa	1175.02 ± 1.2
1457.1 kPa	1175.21 ± 1.2
1466.8 kPa	1175.47 ± 1.2
1497.2 kPa	1176.12 ± 1.2
1510 kPa	1176.43 ± 1.2
1522.1 kPa	1176.69 ± 1.2
1537.1 kPa	1176.99 ± 1.2
1549.7 kPa	1177.31 ± 1.2
1563.1 kPa	1177.61 ± 1.2
1577.9 kPa	1178.01 ± 1.2
1593 kPa	1178.25 ± 1.2
1606 kPa	1178.65 ± 1.2
1618.2 kPa	1178.79 ± 1.2
1633 kPa	1179.18 ± 1.2
1650.5 kPa	1179.47 ± 1.2
1665.3 kPa	1179.86 ± 1.2
1679.6 kPa	1180.16 ± 1.2
1693.1 kPa	1180.45 ± 1.2
1699.6 kPa	1180.56 ± 1.2
1718.6 kPa	1180.95 ± 1.2
1737.4 kPa	1181.34 ± 1.2
1760 kPa	1181.89 ± 1.2
1778.2 kPa	1182.25 ± 1.2
1797.3 kPa	1182.59 ± 1.2
1819.1 kPa	1183.13 ± 1.2
1845.8 kPa	1183.69 ± 1.2
1870.4 kPa	1184.11 ± 1.2
1897.4 kPa	1184.74 ± 1.2
1924.8 kPa	1185.37 ± 1.2
1943.5 kPa	1185.64 ± 1.2
1970 kPa	1186.24 ± 1.2
1988.8 kPa	1186.54 ± 1.2
2013.8 kPa	1187.15 ± 1.2
2040.4 kPa	1187.71 ± 1.2
2074.7 kPa	1188.33 ± 1.2
2102.6 kPa	1188.84 ± 1.3
2129.9 kPa	1189.44 ± 1.3
2157.7 kPa	1190.03 ± 1.3
2186.2 kPa	1190.47 ± 1.3
2213.3 kPa	1191.16 ± 1.2
2277.1 kPa	1192.28 ± 1.2
2311.9 kPa	1192.94 ± 1.3
2338 kPa	1193.41 ± 1.2
2366.9 kPa	1194 ± 1.2
2396.7 kPa	1194.59 ± 1.2
2428 kPa	1195.18 ± 1.2
2456.3 kPa	1195.7 ± 1.2
2482.6 kPa	1196.22 ± 1.2
2511.2 kPa	1196.77 ± 1.2
2547.6 kPa	1197.4 ± 1.2
2588.4 kPa	1198.21 ± 1.2
2628 kPa	1198.83 ± 1.2
2671.3 kPa	1199.65 ± 1.2
2714.7 kPa	1200.41 ± 1.2
2754.7 kPa	1201.07 ± 1.2
2795.1 kPa	1201.67 ± 1.2
2833.2 kPa	1202.46 ± 1.2
2876 kPa	1203.06 ± 1.2
2913.9 kPa	1203.87 ± 1.2
2953 kPa	1204.53 ± 1.2
2989.2 kPa	1205.13 ± 1.2
3027.6 kPa	1205.88 ± 1.2
3069.8 kPa	1206.59 ± 1.2
3107.8 kPa	1207.26 ± 1.2
3148.5 kPa	1207.95 ± 1.2

From the NIST ThermoML archive (doi:10.1021/je900596d)
